Experimental data published in US20260008793A1, “IONIZABLE CATIONIC LIPIDS INCORPORATING SILICON” (ALDEXCHEM KFT., priority 2022, published 2026).

Columns and labels:
[1] = LNP size, PDI and zeta potential by Dynamic Light Scattering (Method A); assay type: physicochemical; conditions: LNP formulated by Method A; for Zeta potential (mV): 1xPBS pH 7.4; for PDI / Size (nm): DLS; for Size (nm): Luciferase-mRNA loaded
How it was run: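 Dynamic light scattering gave particle size, PDI and zeta potential of the LNPs. These were made by microfluidic mixing, 3:1 aqueous to ethanol, of mRNA in 10 mM citrate pH 4.0 with a lipid master mix carrying the ionizable lipid, then dialysed through 100 kDa MWCO tubing.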

HeLa cells = experiment: Transfection efficiency with Luciferase-mRNA, Nano-Glo assay (Method A); assay type: cell-based; conditions: 100 ng Luciferase (SecNLuc) mRNA, 24 h, luminescence; further: unit not given here
How it was run: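 Luminescence of secreted NanoLuc in culture medium, read ~3 min after Nano-Glo reagent, reports transfection. HeLa cells grown to ~80% confluence got 100/50/10 ng mRNA per well as LNPs for 24 h, with a parallel resazurin toxicity readout.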

CCCCCCCC[Si](C)(C)OC(CCCCCCC)OCCCCCCN(CCCCO)CCC[C@@H](C)C1CCC2C3CCC4C[C@H](OC)CC[C@]4(C)C3CC[C@@]21C (stereo partly drawn) [Example 215, 13-heptyl-5-((4R)-4-((3R,10S,13R)-3-methoxy-10,13-dimethylhexadecahydro-1H-cyclopenta[a]phenanthren-17-yl)pentyl)-15,15-dimethyl-12,14-dioxa-5-aza-15-silatricosan-1-ol]
Zeta potential (mV) [1]: −3.3 mV
PDI [1]: 0.211
Size (nm) [1]: 204 nm
Transfection* (Method A = 100 ng mRNA) (HeLa cells): 522805

CCCCCCCCOC(CCCCCN(CCCCO)CCC[C@@H](C)C1CCC2C3CCC4C[C@H](OC)CC[C@]4(C)C3CC[C@@]21C)O[Si](C)(C)OCCCCCCCC (stereo partly drawn) [Example 216, 5-((4R)-4-((3R,10S,13R)-3-methoxy-10,13-dimethylhexadecahydro-1H-cyclopenta[a]phenanthren-17-yl)pentyl)-13,13-dimethyl-11-(octyloxy)-12,14-dioxa-5-aza-13-siladocosan-1-ol]
Zeta potential (mV) [1]: −15.48 mV
PDI [1]: 0.228
Size (nm) [1]: 269.1 nm
Transfection* (Method A = 100 ng mRNA) (HeLa cells): 817325

CCCCCCCCO[Si](C)(C)OC(CCCCCCC)OCCCCCCN(CCCCO)CCC[C@@H](C)C1CCC2C3CCC4C[C@H](OC)CC[C@]4(C)C3CC[C@@]21C (stereo partly drawn) [Example 217, 13-heptyl-5-((4R)-4-((3R,10S,13R)-3-methoxy-10,13-dimethylhexadecahydro-1H-cyclopenta[a]phenanthren-17-yl)pentyl)-15,15-dimethyl-12,14,16-trioxa-5-aza-15-silatetracosan-1-ol]
Zeta potential (mV) [1]: −13.68 mV
PDI [1]: 0.897
Size (nm) [1]: 178.1 nm
Transfection* (Method A = 100 ng mRNA) (HeLa cells): 2231945

CCCCCCCCOC(CCCCCN(CCCCO)CCC[C@@H](C)C1CCC2C3CCC4C[C@H](OC)CC[C@]4(C)C3CC[C@@]21C)O[Si](C)(C)O[Si](C)(C)CCCCCCCC (stereo partly drawn) [Example 218, 4-(((4R)-4-((3R,10S,13R)-3-methoxy-10,13-dimethylhexadecahydro-1H-cyclopenta[a]phenanthren-17-yl)pentyl)(6-(octyloxy)-6-((1,1,3,3-tetramethyl-3-octyldisiloxaneyl)oxy)hexyl)amino)butan-1-ol]
Zeta potential (mV) [1]: −12.88 mV
PDI [1]: 0.028
Size (nm) [1]: 165.6 nm
Transfection* (Method A = 100 ng mRNA) (HeLa cells): 94651

CCCCCCCC[Si](C)(C)O[Si](C)(C)OC(CCCCCCC)OCCCCCCN(CCCCO)CCC[C@@H](C)C1CCC2C3CCC4C[C@H](OC)CC[C@]4(C)C3CC[C@@]21C (stereo partly drawn) [Example 219, 13-heptyl-5-((4R)-4-((3R,10S,13R)-3-methoxy-10,13-dimethylhexadecahydro-1H-cyclopenta[a]phenanthren-17-yl)pentyl)-15,15,17,17-tetramethyl-12,14,16-trioxa-5-aza-15,17-disilapentacosan-1-ol]
Zeta potential (mV) [1]: −16.69 mV
PDI [1]: 0.076
Size (nm) [1]: 139.4 nm
Transfection* (Method A = 100 ng mRNA) (HeLa cells): 531876

CCCCCCCCOC(CCCCCN(CCCCO)CCC[C@@H](C)C1CCC2C3CCC4C[C@H](OC)CC[C@]4(C)C3CC[C@@]21C)O[Si](C)(C)O[Si](C)(C)OCCCCCCCC (stereo partly drawn) [Example 220, 4-(((4R)-4-((3R,10S,13R)-3-methoxy-10,13-dimethylhexadecahydro-1H-cyclopenta[a]phenanthren-17-yl)pentyl)(6-(octyloxy)-6-((1,1,3,3-tetramethyl-3-(octyloxy)disiloxaneyl)oxy)hexyl)amino)butan-1-ol]
Zeta potential (mV) [1]: −14.55 mV
PDI [1]: 0.002
Size (nm) [1]: 138.4 nm
Transfection* (Method A = 100 ng mRNA) (HeLa cells): 367060

CCCCCCCCO[Si](C)(C)O[Si](C)(C)OC(CCCCCCC)OCCCCCCN(CCCCO)CCC[C@@H](C)C1CCC2C3CCC4C[C@H](OC)CC[C@]4(C)C3CC[C@@]21C (stereo partly drawn) [Example 221, 13-heptyl-5-((4R)-4-((3R,10S,13R)-3-methoxy-10,13-dimethylhexadecahydro-1H-cyclopenta[a]phenanthren-17-yl)pentyl)-15,15,17,17-tetramethyl-12,14,16,18-tetraoxa-5-aza-15,17-disilahexacosan-1-ol]
Zeta potential (mV) [1]: −13.99 mV
PDI [1]: 0.011
Size (nm) [1]: 142.1 nm
Transfection* (Method A = 100 ng mRNA) (HeLa cells): 73949

CCCCCCCCOC(CCCCCN(CCCCO)CCC[C@@H](C)C1CCC2C3CCC4C[C@H](OC)CC[C@]4(C)C3CC[C@@]21C)O[Si](C)(C)OCC(CCCCCC)CCCCCCCC (stereo partly drawn) [Example 222, 16-hexyl-5-((4R)-4-((3R,10S,13R)-3-methoxy-10,13-dimethylhexadecahydro-1H-cyclopenta[a]phenanthren-17-yl)pentyl)-13,13-dimethyl-11-(octyloxy)-12,14-dioxa-5-aza-13-silatetracosan-1-ol]
Zeta potential (mV) [1]: −16.36 mV
PDI [1]: 0.121
Size (nm) [1]: 164.5 nm
Transfection* (Method A = 100 ng mRNA) (HeLa cells): 1156093

CCCCCCCCC(CCCCCC)CO[Si](C)(C)OC(CCCCCCC)OCCCCCCN(CCCCO)CCC[C@@H](C)C1CCC2C3CCC4C[C@H](OC)CC[C@]4(C)C3CC[C@@]21C (stereo partly drawn) [Example 223, 13-heptyl-18-hexyl-5-((4R)-4-((3R,10S,13R)-3-methoxy-10,13-dimethylhexadecahydro-1H-cyclopenta[a]phenanthren-17-yl)pentyl)-15,15-dimethyl-12,14,16-trioxa-5-aza-15-silahexacosan-1-ol]
Zeta potential (mV) [1]: −13.68 mV
PDI [1]: 0.15
Size (nm) [1]: 206.5 nm
Transfection* (Method A = 100 ng mRNA) (HeLa cells): 2167625

CCCCCCCCOC(CCCCCCC)O[Si](C)(C)CCCCCCN(CCCCO)CCC[C@@H](C)C1CCC2C3CCC4C[C@H](OC)CC[C@]4(C)C3CC[C@@]21C (stereo partly drawn) [Example 224, 14-heptyl-5-((4R)-4-((3R,10S,13R)-3-methoxy-10,13-dimethylhexadecahydro-1H-cyclopenta[a]phenanthren-17-yl)pentyl)-12,12-dimethyl-13,15-dioxa-5-aza-12-silatricosan-1-ol]
Zeta potential (mV) [1]: −16.58 mV
PDI [1]: 0.08
Size (nm) [1]: 176.5 nm
Transfection* (Method A = 100 ng mRNA) (HeLa cells): 4919513

CCCCCCCCOC(CCCCCCC)O[Si](C)(C)OCCCCCCN(CCCCO)CCC[C@@H](C)C1CCC2C3CCC4C[C@H](OC)CC[C@]4(C)C3CC[C@@]21C (stereo partly drawn) [Example 225, 15-heptyl-5-((4R)-4-((3R,10S,13R)-3-methoxy-10,13-dimethylhexadecahydro-1H-cyclopenta[a]phenanthren-17-yl)pentyl)-13,13-dimethyl-12,14,16-trioxa-5-aza-13-silatetracosan-1-ol]
Zeta potential (mV) [1]: −13.58 mV
PDI [1]: 0.04
Size (nm) [1]: 117.9 nm
Transfection* (Method A = 100 ng mRNA) (HeLa cells): 503272
